The assay in a line: Antioxidant activity assessed as trolox equivalents of ABTS radical scavenging activity. The assay is classed as functional.

SMILES strings stand for the structures.

In the case of `COc1ccc(Nc2nc(N)c(C(=O)c3ccccc3)s2)cc1`, the Activity is 0.17 µM.
